Data reported in US4160829A, “Antibacterial 1,2,4-oxadiazolylacetamido cephalosporins” (Gist-Brocades N.V., priority 1972, dated 1979).
In brackets after ≈: the same amount, converted by molar mass.

Assays:
[1] = test system: Bac.Subt.ATCC 6633; test: agar serial dilution test; format: cell-based, Bacillus subtilis; conditions: agar serial dilution, 24 hours, 37° C.
[2] = test system: Staph.aureus A 321; test: agar serial dilution test; format: cell-based, Staphylococcus aureus; conditions: agar serial dilution, 24 hours, 37° C.
[3] = test system: Staph.aureus A 2000; test: agar serial dilution test; format: cell-based, Staphylococcus aureus; conditions: agar serial dilution, 24 hours, 37° C.
[4] = test system: Staph.aureus A 2001; test: agar serial dilution test; format: cell-based, Staphylococcus aureus; conditions: agar serial dilution, 24 hours, 37° C.
[5] = test system: Strep. faec. L 80; test: agar serial dilution test; format: cell-based, Streptococcus faecalis; conditions: agar serial dilution, 24 hours, 37° C.
[6] = test system: Dipl.pneum. L 54; test: agar serial dilution test; format: cell-based, Diplococcus pneumoniae; conditions: agar serial dilution, 24 hours, 37° C.
[7] = test system: Past.multo. A 723; test: agar serial dilution test; format: cell-based, Pasteurella multocida; conditions: agar serial dilution, 24 hours, 37° C.
[8] = test system: Kleb.pneum. A 809; test: agar serial dilution test; format: cell-based, Klebsiella pneumoniae; conditions: agar serial dilution, 24 hours, 37° C.
[9] = test system: Salm.dubl. P 43; test: agar serial dilution test; format: cell-based, Salmonella dublin; conditions: agar serial dilution, 24 hours, 37° C.
[10] = test system: Salm.typh. R 127; test: agar serial dilution test; format: cell-based; conditions: 37° C.
[11] = test system: Esch.coli U 20; test: agar serial dilution test; format: cell-based, Escherichia coli; conditions: agar serial dilution, 24 hours, 37° C.
[12] = test system: Shig.equir. T 3; test: agar serial dilution test; format: cell-based; conditions: 37° C.
[13] = test system: Pseud.aerug. H 10; test: agar serial dilution test; format: cell-based; conditions: agar serial dilution, 24 hours, 37° C.
[14] = test system: Pseud.aerug. 2396; test: agar serial dilution test; format: cell-based; conditions: agar serial dilution, 24 hours, 37° C.
[15] = test system: Pseud.aerug. Wyeth A 1058; test: agar serial dilution test; format: cell-based; conditions: agar serial dilution, 24 hours, 37° C.
[16] = test system: Prot.rettg. A 821; test: agar serial dilution test; format: cell-based, Proteus rettgeri; conditions: agar serial dilution, 24 hours, 37° C.
[17] = test system: Prot.mirab. H 3; test: agar serial dilution test; format: cell-based, Proteus mirabilis; conditions: agar serial dilution, 24 hours, 37° C.
[18] = test system: Prot.mirab. L 93; test: agar serial dilution test; format: cell-based, Proteus mirabilis; conditions: agar serial dilution, 24 hours, 37° C.
[19] = test system: Prot.mirab. A 1200; test: agar serial dilution test; format: cell-based, Proteus mirabilis; conditions: agar serial dilution, 24 hours, 37° C.
[20] = test system: Prot.morg. 2241; test: agar serial dilution test; format: cell-based; conditions: agar serial dilution, 24 hours, 37° C.
[21] = test system: Staph.aureus A 355; test: micro serial dilution test; format: cell-based, Staphylococcus aureus; conditions: micro serial dilution (in brackets), about 18 hours, 30° C. or 37° C., penicillinase-producing strain
Excerpt: Two drops of a stock solution of the test compound (antibiotic) in a known concentration were brought into the first hole of a test plate with 9 numbered holes with a sterile Pasteur pipette. After rinsing this pipette three times with a physiological NaCl-solution, two drops of a stock solution of the test organism in a culture medium were brought in all the holes except for hole 8. In the first hole, the solution of the tested compound had been half diluted, then by stirring the liquid in the first hole and adding two drops of this mixture to the second hole and so on until hole 8, dilutions of the test compound solution were obtained in geometrical progression. The hole 9 contained no antibiotic and served for checking the growth of the testogranism in a blank medium. The test plate was incubated at 30° C. or 37° C. for about 18 hours.
^1 Penicillinase-producing strain

[22] = test system: Staph.aureus A 2000; test: micro serial dilution test; format: cell-based, Staphylococcus aureus; conditions: micro serial dilution (in brackets), about 18 hours, 30° C. or 37° C.
[23] = test system: Staph.aureus A 2001; test: micro serial dilution test; format: cell-based, Staphylococcus aureus; conditions: micro serial dilution (in brackets), about 18 hours, 30° C. or 37° C.
[24] = test system: Haem.infl. A 1030; test: micro serial dilution test; format: cell-based; conditions: micro serial dilution (in brackets), about 18 hours, 30° C. or 37° C.
[25] = test system: Staph.aureus A 355; test: agar serial dilution test; conditions: penicillinase-producing strain
[26] = test system: Strep.haem. A 266; test: agar serial dilution test; format: cell-based, Streptococcus haemolyticus; conditions: Streptococcus; agar serial dilution, 24 hours, 37° C.; read-out: minimal inhibitory concentration (MIC)
[27] = 24 h, read-out: minimal inhibitory concentration (MIC)
[28] = read-out: minimal inhibitory concentration (MIC)
[29] = Proteus mirabilis, read-out: minimal inhibitory concentration (MIC)

7-[α-morpholino(3-methyl-1,2,4-oxadiazol-5-yl)-acetamido]-3-acetoxymethyl-3-cephem-4-carboxylic acid [Compound E]
minimal inhibitory concentration (MIC) [1]: 6 µg/mL | minimal inhibitory concentration (MIC) [2]: 6 µg/mL | minimal inhibitory concentration (MIC) [3]: 12.5 µg/mL | minimal inhibitory concentration (MIC) [4]: 12.5 µg/mL | minimal inhibitory concentration (MIC) [5]: > 100 µg/mL | minimal inhibitory concentration (MIC) [6]: 12.5 µg/mL | minimal inhibitory concentration (MIC) [7]: 6 µg/mL | minimal inhibitory concentration (MIC) [8]: 25 µg/mL | minimal inhibitory concentration (MIC) [9]: > 100 µg/mL | minimal inhibitory concentration (MIC) ([10]; 24 hours): > 100 µg/mL | minimal inhibitory concentration (MIC) [11]: > 100 µg/mL | minimal inhibitory concentration (MIC) ([12]; 24 hours): > 100 µg/mL | minimal inhibitory concentration (MIC) [13]: > 100 µg/mL | minimal inhibitory concentration (MIC) [14]: > 100 µg/mL | minimal inhibitory concentration (MIC) [15]: > 100 µg/mL | minimal inhibitory concentration (MIC) [16]: 3 µg/mL | minimal inhibitory concentration (MIC) [17]: > 100 µg/mL | minimal inhibitory concentration (MIC) [18]: 100 µg/mL | minimal inhibitory concentration (MIC) [19]: > 100 µg/mL | minimal inhibitory concentration (MIC) [20]: > 100 µg/mL | minimal inhibitory concentration (MIC) [21]: 8 µg/mL | minimal inhibitory concentration (MIC) [22]: 8 µg/mL | minimal inhibitory concentration (MIC) [23]: 4 µg/mL | minimal inhibitory concentration (MIC) [24]: > 125 µg/mL | minimal inhibitory concentration (MIC) ([25]; agar serial dilution, 24 hours, 37° C.): 12.5 µg/mL

CC(=O)OCC1=C(C(=O)O)N2C(=O)[C@@H](NC(=O)Cc3noc(Cc4ccccc4)n3)[C@H]2SC1 [Compound C, 7-[(5-benzyl-1,2,4-oxadiazol-3-yl)-acetamido]-3-acetoxymethyl-3-cephem-4-carboxylic acid]
MIC ([1]; Bacillus subtilis, ATCC6633, 24 h, read-out: minimal inhibitory concentration (MIC)): 0.25 µg/mL (≈ 0.529 µM) | MIC ([2]; Staphylococcus aureus, A321, 24 h, read-out: minimal inhibitory concentration (MIC)): 0.25 µg/mL (≈ 0.529 µM) | MIC ([3]; Staphylococcus aureus, A2000, 24 h, read-out: minimal inhibitory concentration (MIC)): 0.25 µg/mL (≈ 0.529 µM) | MIC ([4]; Staphylococcus aureus, A2001, 24 h, read-out: minimal inhibitory concentration (MIC)): 0.25 µg/mL (≈ 0.529 µM) | MIC [26]: 0.5 µg/mL (≈ 1.06 µM) | MIC ([5]; Enterococcus faecalis, read-out: minimal inhibitory concentration (MIC)): 12.5 µg/mL (≈ 26.5 µM) | MIC ([6]; Streptococcus pneumoniae, read-out: minimal inhibitory concentration (MIC)): 0.5 µg/mL (≈ 1.06 µM) | MIC ([7]; Pasteurella multocida, read-out: minimal inhibitory concentration (MIC)): 1 µg/mL (≈ 2.12 µM) | MIC ([8]; Klebsiella pneumoniae, read-out: minimal inhibitory concentration (MIC)): 12.5 µg/mL (≈ 26.5 µM) | MIC ([9]; Salmonella enterica, read-out: minimal inhibitory concentration (MIC)): > 100 µg/mL | MIC [10, 27]: > 100 µg/mL | MIC ([11]; Escherichia coli, U20, read-out: minimal inhibitory concentration (MIC)): > 100 µg/mL | MIC [12, 27]: 25 µg/mL (≈ 52.9 µM) | MIC [13, 28]: > 100 µg/mL | MIC [14, 28]: > 100 µg/mL | MIC [15, 28]: > 100 µg/mL | MIC ([16]; Providencia rettgeri, 24 h, read-out: minimal inhibitory concentration (MIC)): 50 µg/mL (≈ 106 µM) | MIC [17, 29]: > 100 µg/mL | MIC [18, 29]: 25 µg/mL (≈ 52.9 µM) | MIC ([19]; Proteus mirabilis, 24 h, read-out: minimal inhibitory concentration (MIC)): > 100 µg/mL | MIC [20, 27]: > 100 µg/mL | MIC ([21]; Staphylococcus aureus, A355, read-out: minimal inhibitory concentration (MIC)): 0.6 µg/mL (≈ 1.27 µM) | MIC ([22]; Staphylococcus aureus, A2000, 18 h, read-out: minimal inhibitory concentration (MIC)): 0.3 µg/mL (≈ 0.635 µM) | MIC ([23]; Staphylococcus aureus, A2001, 18 h, read-out: minimal inhibitory concentration (MIC)): 0.6 µg/mL (≈ 1.27 µM) | MIC ([24]; 18 h, read-out: minimal inhibitory concentration (MIC)): 125 µg/mL (≈ 265 µM) | MIC ([25]; Staphylococcus aureus, A355, 24 h, read-out: minimal inhibitory concentration (MIC), agar serial dilution, 24 hours, 37° C.): 0.75 µg/mL (≈ 1.59 µM)
